From US20260250318A1, “COMPOSITIONS AND METHODS FOR CROSSING THE BLOOD BRAIN BARRIER” (VOYAGER THERAPEUTICS, INC., priority 2022, published 2026)

Test system: brains, heart, liver, muscle, and DRG of the NHPs
Assay: Maturation of TTM-001 and TTM-002 capsids, NGS enrichment in NHP tissues
Type: in vivo
Settings: NGS fold-enrichment; DRG; NHP; relative to AAV9
In short: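 Variants carry mutations within and flanking the loop IV peptide insert: positions 450–466 were triplet-randomized, while positions 449–466 received low-frequency point mutations. The combined pool went into two NHPs, and each peptide was scored by NGS enrichment ratio against AAV9.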

Row | Sequence | Fold Enrichment relative to AAV9, DRG (NHP) [fold]
1 | KTINRQFSPHSKAQNQQT | 0.000
2 | KYSMGSGSPHSKAQNQQT (peptide inserted in AAV capsid) | 0.000
3 | KTINGSGSPHSKCTSQQT | 0.232
4 | KTIVGSGSPHSKPQNQQT | 0.000
5 | KTINGSGSPHSKAQFCLT | 0.000
6 | KTTGRSGSPHSKAQNQQT | 0.000

Same assay, conditions: NGS fold-enrichment; brain; NHP; relative to AAV9

Row | Sequence | Fold Enrichment relative to AAV9, Brain (NHP) [fold]
7 | KTINRQFSPHSKAQNQQT | 0.000
8 | KYSMGSGSPHSKAQNQQT (peptide inserted in AAV capsid) | 0.000
9 | KTINGSGSPHSKCTSQQT | 0.493
10 | KTIVGSGSPHSKPQNQQT | 0.000
11 | KTINGSGSPHSKAQFCLT | 0.000
12 | KTTGRSGSPHSKAQNQQT | 0.000

Same assay, conditions: NGS fold-enrichment; heart; NHP; relative to AAV9

Row | Sequence | Fold Enrichment relative to AAV9, Heart (NHP) [fold]
13 | KTINRQFSPHSKAQNQQT | 0.000
14 | KYSMGSGSPHSKAQNQQT (peptide inserted in AAV capsid) | 0.000
15 | KTINGSGSPHSKCTSQQT | 1.413
16 | KTIVGSGSPHSKPQNQQT | 0.000
17 | KTINGSGSPHSKAQFCLT | 0.000
18 | KTTGRSGSPHSKAQNQQT | 0.000

Same assay, conditions: NGS fold-enrichment; liver DNA; NHP; relative to AAV9

Row | Sequence | Fold Enrichment relative to AAV9, Liver DNA (NHP) [fold]
19 | KTINRQFSPHSKAQNQQT | 4.480
20 | KYSMGSGSPHSKAQNQQT (peptide inserted in AAV capsid) | 1.587
21 | KTINGSGSPHSKCTSQQT | 5.821
22 | KTIVGSGSPHSKPQNQQT | 0.894
23 | KTINGSGSPHSKAQFCLT | 3.371
24 | KTTGRSGSPHSKAQNQQT | 0.126

Same assay, conditions: NGS fold-enrichment; liver RNA; NHP; relative to AAV9

Row | Sequence | Fold Enrichment relative to AAV9, Liver RNA (NHP) [fold]
25 | KTINRQFSPHSKAQNQQT | 10.275
26 | KYSMGSGSPHSKAQNQQT (peptide inserted in AAV capsid) | 10.478
27 | KTINGSGSPHSKCTSQQT | 10.311
28 | KTIVGSGSPHSKPQNQQT | 10.381
29 | KTINGSGSPHSKAQFCLT | 10.065
30 | KTTGRSGSPHSKAQNQQT | 10.863

Same assay, conditions: NGS fold-enrichment; muscle; NHP; relative to AAV9

Row | Sequence | Fold Enrichment relative to AAV9, Muscle (NHP) [fold]
31 | KTINRQFSPHSKAQNQQT | 0.000
32 | KYSMGSGSPHSKAQNQQT (peptide inserted in AAV capsid) | 0.000
33 | KTINGSGSPHSKCTSQQT | 2.353
34 | KTIVGSGSPHSKPQNQQT | 0.000
35 | KTINGSGSPHSKAQFCLT | 0.000
36 | KTTGRSGSPHSKAQNQQT | 0.000

Same assay, conditions: NHP DRG; NGS; relative to AAV9 control

Row | Sequence | Fold Enrichment relative to AAV9, DRG (NHP) [fold]
37 | KTINGSGSPHSKRNYQQT | 0.000
38 | KTINGSGSPHSYMRNQQT | 0.000
39 | KKHLGSGSPHSKAQNQQT | 0.000
40 | KTINGSGSPHSKARISQT | 0.000
41 | KTINGSGSPHWSYQNQQT | 0.000
42 | KTINGLDSPHRSRQNQQT | 0.000
43 | KYSAGSGSPHSKAQNQQT (peptide inserted in AAV capsid) | 0.000
44 | KTINGSGSPHSLAWNQQT | 0.000
45 | KTINGSGSPHSFWSNQQT | 0.000
46 | KTINGSGSPHSKAARRQT | 0.000
47 | KTINGSGSPHSKCSVQQT | 0.000

Same assay, conditions: NHP brain; NGS; relative to AAV9 control

Row | Sequence | Fold Enrichment relative to AAV9, Brain (NHP) [fold]
48 | KTINGSGSPHSKRNYQQT | 0.000
49 | KTINGSGSPHSYMRNQQT | 0.000
50 | KKHLGSGSPHSKAQNQQT | 0.000
51 | KTINGSGSPHSKARISQT | 0.000
52 | KTINGSGSPHWSYQNQQT | 0.000
53 | KTINGLDSPHRSRQNQQT | 0.000
54 | KYSAGSGSPHSKAQNQQT (peptide inserted in AAV capsid) | 0.000
55 | KTINGSGSPHSLAWNQQT | 0.000
56 | KTINGSGSPHSFWSNQQT | 0.000
57 | KTINGSGSPHSKAARRQT | 0.000
58 | KTINGSGSPHSKCSVQQT | 0.000

Same assay, conditions: NHP heart; NGS; relative to AAV9 control

Row | Sequence | Fold Enrichment relative to AAV9, Heart (NHP) [fold]
59 | KTINGSGSPHSKRNYQQT | 0.000
60 | KTINGSGSPHSYMRNQQT | 0.000
61 | KKHLGSGSPHSKAQNQQT | 0.000
62 | KTINGSGSPHSKARISQT | 0.000
63 | KTINGSGSPHWSYQNQQT | 0.000
64 | KTINGLDSPHRSRQNQQT | 0.000
65 | KYSAGSGSPHSKAQNQQT (peptide inserted in AAV capsid) | 0.000
66 | KTINGSGSPHSLAWNQQT | 0.000
67 | KTINGSGSPHSFWSNQQT | 0.000
68 | KTINGSGSPHSKAARRQT | 0.000
69 | KTINGSGSPHSKCSVQQT | 0.000

Same assay, conditions: NHP liver DNA; NGS; relative to AAV9 control

Row | Sequence | Fold Enrichment relative to AAV9, Liver DNA (NHP) [fold]
70 | KTINGSGSPHSKRNYQQT | 5.528
71 | KTINGSGSPHSYMRNQQT | 2.293
72 | KKHLGSGSPHSKAQNQQT | 0.658
73 | KTINGSGSPHSKARISQT | 1.565
74 | KTINGSGSPHWSYQNQQT | 3.751
75 | KTINGLDSPHRSRQNQQT | 0.321
76 | KYSAGSGSPHSKAQNQQT (peptide inserted in AAV capsid) | 1.824
77 | KTINGSGSPHSLAWNQQT | 4.746
78 | KTINGSGSPHSFWSNQQT | 1.345
79 | KTINGSGSPHSKAARRQT | 6.633
80 | KTINGSGSPHSKCSVQQT | 1.465

Same assay, conditions: NHP liver RNA; NGS; TTM-001 and TTM-002 matured AAV capsid variants; relative to AAV9 control

Row | Sequence | Fold Enrichment relative to AAV9, Liver RNA (NHP) [fold]
81 | KTINGSGSPHSKRNYQQT | 12.781
82 | KTINGSGSPHSYMRNQQT | 20.007
83 | KKHLGSGSPHSKAQNQQT | 18.521
84 | KTINGSGSPHSKARISQT | 12.142
85 | KTINGSGSPHWSYQNQQT | 28.607
86 | KTINGLDSPHRSRQNQQT | 26.403
87 | KYSAGSGSPHSKAQNQQT (peptide inserted in AAV capsid) | 41.310
88 | KTINGSGSPHSLAWNQQT | 29.015
89 | KTINGSGSPHSFWSNQQT | 22.857
90 | KTINGSGSPHSKAARRQT | 19.998
91 | KTINGSGSPHSKCSVQQT | 12.246

Same assay, conditions: NHP muscle; NGS; relative to AAV9 control

Row | Sequence | Fold Enrichment relative to AAV9, Muscle (NHP) [fold]
92 | KTINGSGSPHSKRNYQQT | 0.000
93 | KTINGSGSPHSYMRNQQT | 0.000
94 | KKHLGSGSPHSKAQNQQT | 0.000
95 | KTINGSGSPHSKARISQT | 0.000
96 | KTINGSGSPHWSYQNQQT | 0.000
97 | KTINGLDSPHRSRQNQQT | 0.000
98 | KYSAGSGSPHSKAQNQQT (peptide inserted in AAV capsid) | 0.000
99 | KTINGSGSPHSLAWNQQT | 0.000
100 | KTINGSGSPHSFWSNQQT | 0.000
101 | KTINGSGSPHSKAARRQT | 0.000
102 | KTINGSGSPHSKCSVQQT | 0.000
